Data reported in ChEMBL document CHEMBL1201862, “PubChem BioAssay data set” (2004).
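Cultured in 96-well plates, cells were exposed to test compound for 48 hours across five concentrations. The concentration for 50% growth inhibition is given as GI50.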 Calls of active or inactive are those of the source. No stated cut-off is given here; in the data, active = GI50 up to about 1.1 µM and inactive = higher.

How the values were obtained:
Assay in all cases: NCI anticancer screen, dose series, 48 h
786-0 = test system: 786-0
A498 = test system: A498
A549 = test system: A549
ACHN = test system: ACHN
CAKI-1 = test system: CAKI-1
CCRF-CEM = test system: CCRF-CEM
COLO 205 = test system: COLO 205
DU-145 = test system: DU-145
EKVX = test system: EKVX
HCC 2998 = test system: HCC 2998
HCT-15 = test system: HCT-15
HL-60 = test system: HL-60
HOP-62 = test system: HOP-62
HOP-92 = test system: HOP-92
HT-29 = test system: HT-29
Hs-578T = test system: Hs-578T
IGROV-1 = test system: IGROV-1
K562 = test system: K562
KM12 = test system: KM12
LOX IMVI = test system: LOX IMVI
M14 = test system: M14
MCF7 = test system: MCF7
MDA-MB-231 = test system: MDA-MB-231
MDA-MB-435 = test system: MDA-MB-435
MDA-N = test system: MDA-N
MOLT-4 = test system: MOLT-4
Malme-3M = test system: Malme-3M
NCI-H23 = test system: NCI-H23
NCI-H460 = test system: NCI-H460
NCI-H522 = test system: NCI-H522
NCI/ADR-RES = test system: NCI/ADR-RES
OVCAR-3 = test system: OVCAR-3
OVCAR-4 = test system: OVCAR-4
OVCAR-5 = test system: OVCAR-5
OVCAR-8 = test system: OVCAR-8
PC-3 = test system: PC-3
RPMI-8226 = test system: RPMI-8226
RXF 393 = test system: RXF 393
SF-268 = test system: SF-268
SF-295 = test system: SF-295
SF-539 = test system: SF-539
SK-MEL-28 = test system: SK-MEL-28
SK-MEL-2 = test system: SK-MEL-2
SK-MEL-5 = test system: SK-MEL-5
SK-OV-3 = test system: SK-OV-3
SN12C = test system: SN12C
SNB-19 = test system: SNB-19
SNB-75 = test system: SNB-75
SR = test system: SR
SW-620 = test system: SW-620
T47D = test system: T47D
TK-10 = test system: TK-10
U-251 = test system: U-251
UACC-257 = test system: UACC-257
UACC-62 = test system: UACC-62
UO-31 = test system: UO-31

CCO[C@]12CCC[C@H]1[C@@H]1C(=O)c3ccccc3C(=O)C1=C(C)O2
GI50 (786-0): 29.2 µM (inactive) | GI50 (A498): 76 µM (inactive) | GI50 (A549): > 100 µM (inactive) | GI50 (ACHN): 36.8 µM (inactive) | GI50 (CAKI-1): 55.8 µM (inactive) | GI50 (CCRF-CEM): 33.5 µM (inactive) | GI50 (COLO 205): > 100 µM (inactive) | GI50 (DU-145): 58.1 µM (inactive) | GI50 (EKVX): > 100 µM (inactive) | GI50 (HCC 2998): > 100 µM (inactive) | GI50 (HCT-15): > 100 µM | GI50 (HL-60): 41.7 µM (inactive) | GI50 (HOP-62): > 100 µM (inactive) | GI50 (HOP-92): 44.9 µM (inactive) | GI50 (HT-29): > 100 µM (inactive) | GI50 (Hs-578T): > 100 µM (inactive) | GI50 (IGROV-1): > 100 µM (inactive) | GI50 (K562): 32 µM (inactive) | GI50 (KM12): > 100 µM (inactive) | GI50 (LOX IMVI): 20.8 µM (inactive) | GI50 (M14): 34.3 µM (inactive) | GI50 (MCF7): 17 µM (inactive) | GI50 (MDA-MB-231): > 100 µM (inactive) | GI50 (MDA-MB-435): 39.5 µM (inactive) | GI50 (MDA-N): 19.5 µM (inactive) | GI50 (MOLT-4): 33.6 µM (inactive) | GI50 (Malme-3M): > 100 µM (inactive) | GI50 (NCI-H23): 98.2 µM (inactive) | GI50 (NCI-H460): > 100 µM (inactive) | GI50 (NCI-H522): > 100 µM (inactive) | GI50 (NCI/ADR-RES): > 100 µM (inactive) | GI50 (OVCAR-3): 22 µM (inactive) | GI50 (OVCAR-4): 26.3 µM (inactive) | GI50 (OVCAR-5): > 100 µM (inactive) | GI50 (OVCAR-8): 40.1 µM (inactive) | GI50 (PC-3): > 100 µM (inactive) | GI50 (RPMI-8226): 29.2 µM (inactive) | GI50 (RXF 393): 20.5 µM (inactive) | GI50 (SF-268): 30.8 µM (inactive) | GI50 (SF-295): 81.1 µM (inactive) | GI50 (SF-539): 29.4 µM (inactive) | GI50 (SK-MEL-28): > 100 µM (inactive) | GI50 (SK-MEL-2): > 100 µM (inactive) | GI50 (SK-MEL-5): 33.7 µM (inactive) | GI50 (SK-OV-3): > 100 µM (inactive) | GI50 (SN12C): > 100 µM (inactive) | GI50 (SNB-19): > 100 µM (inactive) | GI50 (SNB-75): 58.6 µM (inactive) | GI50 (SR): 22.3 µM (inactive) | GI50 (SW-620): 37.2 µM (inactive) | GI50 (T47D): 70 µM (inactive) | GI50 (TK-10): > 100 µM (inactive) | GI50 (U-251): 36.3 µM (inactive) | GI50 (UACC-257): > 100 µM (inactive) | GI50 (UACC-62): > 100 µM (inactive) | GI50 (UO-31): > 100 µM (inactive)
